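1) Cells in 96-well plates. 2) Compound, 48 h, 5 concentrations. 3) Linear interpolation between surrounding doses. 4) Unreached endpoint = highest concentration. GI50 is the concentration that inhibits growth by half.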 The source made the active and inactive calls. Rule as the data show it: active = GI50 up to about 1.1 µM and inactive = higher.
Tests used:
Assay in all cases: inhibition of tumour cell growth, NCI panel, 48 h
SW-620 = system: SW-620
RXF 393 = system: RXF 393
NCI/ADR-RES = system: NCI/ADR-RES
TK-10 = system: TK-10
786-0 = system: 786-0
EKVX = system: EKVX
MDA-MB-435 = system: MDA-MB-435
IGROV-1 = system: IGROV-1
UACC-257 = system: UACC-257
LOX IMVI = system: LOX IMVI
SF-268 = system: SF-268
NCI-H226 = system: NCI-H226
HCT-15 = system: HCT-15
NCI-H522 = system: NCI-H522
Hs-578T = system: Hs-578T
SF-295 = system: SF-295
MDA-N = system: MDA-N
M14 = system: M14
K562 = system: K562
SR = system: SR

SMILES	GI50 (SW-620)	GI50 (RXF 393)	GI50 (NCI/ADR-RES)	GI50 (TK-10)	GI50 (786-0)	GI50 (EKVX)	GI50 (MDA-MB-435)	GI50 (IGROV-1)	GI50 (UACC-257)	GI50 (LOX IMVI)	GI50 (SF-268)	GI50 (NCI-H226)	GI50 (HCT-15)	GI50 (NCI-H522)	GI50 (Hs-578T)	GI50 (SF-295)	GI50 (MDA-N)	GI50 (M14)	GI50 (K562)	GI50 (SR)
N=C1OC(CN2CCN(c3ccccc3)CC2)CN1C(=S)Nc1ccccc1 (stereo not given)	> 100 µM (inactive)	41.1 µM (inactive)	45.4 µM (inactive)	43.5 µM (inactive)	> 100 µM (inactive)	32.6 µM (inactive)	76.6 µM (inactive)	92.7 µM (inactive)	56 µM (inactive)	25.3 µM (inactive)	39.4 µM (inactive)	78.9 µM (inactive)	91 µM	28.9 µM (inactive)	13 µM (inactive)	32.7 µM (inactive)	84.9 µM (inactive)	55 µM (inactive)	33.9 µM (inactive)	29.8 µM (inactive)
Cc1cccc2c(N)c3cccc(C(=O)NCC[N+](C)(C)Cc4sccc4[N+](=O)[O-])c3nc12	5.86 µM (inactive)	12.9 µM (inactive)	51.4 µM (inactive)	25.9 µM (inactive)	5.56 µM (inactive)	18.6 µM (inactive)	40.6 µM (inactive)	2.71 µM (inactive)	26.9 µM (inactive)	13.5 µM (inactive)	19 µM (inactive)	6.18 µM (inactive)	6.18 µM	2.64 µM (inactive)	1.11 µM (active)	2.64 µM (inactive)	19.6 µM (inactive)	13.8 µM (inactive)	3.64 µM (inactive)	0.398 µM (active)
C/C(=N\N=C1/C(=O)OC(c2ccccc2)=C1C(=O)c1ccccc1)c1ccc([N+](=O)[O-])cc1	46.7 µM (inactive)	46 µM (inactive)	60.7 µM (inactive)	> 100 µM (inactive)	68.7 µM (inactive)	36.3 µM (inactive)	46.7 µM (inactive)	29.2 µM (inactive)	> 100 µM (inactive)	34.8 µM (inactive)	> 100 µM (inactive)	27.8 µM (inactive)	23.7 µM	27.7 µM (inactive)	54.3 µM (inactive)	45.6 µM (inactive)	87.9 µM (inactive)	65.5 µM (inactive)	35 µM (inactive)	6.7 µM (inactive)
O=C(/C=C(\O)c1cc(-c2ccccc2)n(-c2ccccc2)n1)c1ccccc1	4.62 µM (inactive)	67.6 µM (inactive)	5.38 µM (inactive)	4.46 µM (inactive)	3.27 µM (inactive)	9.59 µM (inactive)	3.78 µM (inactive)	2.51 µM (inactive)	59.4 µM (inactive)	4.37 µM (inactive)	24.2 µM (inactive)	3.38 µM (inactive)	1.48 µM	3.52 µM (inactive)	14.7 µM (inactive)	8.17 µM (inactive)	18.2 µM (inactive)	6.24 µM (inactive)	3.46 µM (inactive)	1.12 µM (active)
NC(CCc1ccccc1)(C(=O)O)c1ccccc1 (stereo not given)	> 100 µM (inactive)	> 100 µM (inactive)	> 100 µM (inactive)	> 100 µM (inactive)	> 100 µM (inactive)	> 100 µM (inactive)	> 100 µM (inactive)	> 100 µM (inactive)	> 100 µM (inactive)	> 100 µM (inactive)	> 100 µM (inactive)	> 100 µM (inactive)	> 100 µM	> 100 µM (inactive)	> 100 µM (inactive)	> 100 µM (inactive)	> 100 µM (inactive)	> 100 µM (inactive)	> 100 µM (inactive)	> 100 µM (inactive)
CCCCCC(=O)OC[n+]1cccc(-c2c(COC(=O)NC(C)C)c(COC(=O)NC(C)C)c3n2CCC3)c1	31.7 µM (inactive)	26.4 µM (inactive)	49.4 µM (inactive)	> 84.1 µM (inactive)	30.7 µM (inactive)	> 100 µM (inactive)	> 100 µM (inactive)	> 34.2 µM (inactive)	> 100 µM (inactive)	24 µM (inactive)	28.5 µM (inactive)	> 64.4 µM (inactive)	56.1 µM	15.6 µM (inactive)	69.3 µM (inactive)	59 µM (inactive)	> 100 µM (inactive)	52.1 µM (inactive)	37.2 µM (inactive)	5.78 µM (inactive)
CCCCCCCCC[n+]1cccc(C2C(C(=O)OCC)=C(C)NC(C)=C2C(=O)OCC)c1	4.26 µM (inactive)	2.03 µM (inactive)	52.6 µM (inactive)	10.7 µM (inactive)	7.08 µM (inactive)	11.9 µM (inactive)	2.08 µM (inactive)	2.02 µM (inactive)	2.38 µM (inactive)	2.92 µM (inactive)	4.67 µM (inactive)	11.9 µM (inactive)	16 µM	2.68 µM (inactive)	3.1 µM (inactive)	17 µM (inactive)	2.13 µM (inactive)	2.7 µM (inactive)	3.89 µM (inactive)	5.74 µM (inactive)
CON(C)C(=O)CNC(=O)OCC1c2ccccc2-c2ccccc21	> 100 µM (inactive)	> 100 µM (inactive)	> 100 µM (inactive)	> 100 µM (inactive)	> 100 µM (inactive)	> 100 µM (inactive)	> 100 µM (inactive)	> 100 µM (inactive)	> 100 µM (inactive)	18.8 µM (inactive)	> 100 µM (inactive)	> 100 µM (inactive)	78 µM	> 100 µM (inactive)	> 100 µM (inactive)	> 100 µM (inactive)	> 100 µM (inactive)	> 100 µM (inactive)	40.7 µM (inactive)	30.6 µM (inactive)
CCOC(=O)C(Cc1cc(OC)c(CC(C(=O)OCC)C(=O)OCC)cc1OC)C(=O)OCC	> 100 µM (inactive)	> 55.7 µM (inactive)	> 100 µM (inactive)	> 100 µM (inactive)	61.5 µM (inactive)	> 100 µM (inactive)	> 100 µM (inactive)	> 100 µM (inactive)	> 100 µM (inactive)	> 100 µM (inactive)	> 94.4 µM (inactive)	> 91.4 µM (inactive)	> 100 µM	> 100 µM (inactive)	> 100 µM (inactive)	> 92.7 µM (inactive)	> 100 µM (inactive)	> 100 µM (inactive)	> 100 µM (inactive)	> 100 µM (inactive)
C=CCC1(O)c2ccccc2C(=O)c2c(O)ccc(O)c21 (stereo not given)	5.79 µM (inactive)	4.12 µM (inactive)	2.12 µM (inactive)	14.6 µM (inactive)	11.7 µM (inactive)	11.4 µM (inactive)	1.8 µM (inactive)	5.98 µM (inactive)	5.3 µM (inactive)	9.66 µM (inactive)	10.5 µM (inactive)	7.03 µM (inactive)	3.61 µM	2.62 µM (inactive)	4.24 µM (inactive)	5.07 µM (inactive)	2.12 µM (inactive)	5.01 µM (inactive)	11.1 µM (inactive)	5.48 µM (inactive)
CCC(=O)NCCc1c[nH]c2ccc(OC)cc12	> 100 µM (inactive)	> 100 µM (inactive)	> 100 µM (inactive)	> 100 µM (inactive)	> 100 µM (inactive)	> 100 µM (inactive)	> 100 µM (inactive)	> 100 µM (inactive)	> 100 µM (inactive)	> 100 µM (inactive)	> 100 µM (inactive)	> 100 µM (inactive)	> 100 µM	> 100 µM (inactive)	> 100 µM (inactive)	> 100 µM (inactive)	> 100 µM (inactive)	> 100 µM (inactive)	> 100 µM (inactive)	> 100 µM (inactive)
Cc1nc(C)c(N2CCN(C#N)CC2)c(O)n1	> 100 µM (inactive)	> 100 µM (inactive)	> 100 µM (inactive)	> 100 µM (inactive)	> 100 µM (inactive)	> 100 µM (inactive)	> 100 µM (inactive)	> 100 µM (inactive)	> 100 µM (inactive)	> 100 µM (inactive)	> 100 µM (inactive)	> 100 µM (inactive)	> 100 µM	> 100 µM (inactive)	> 100 µM (inactive)	> 100 µM (inactive)	> 100 µM (inactive)	> 100 µM (inactive)	> 100 µM (inactive)	> 100 µM (inactive)
Cn1c(=O)c2c(nc3n(Cc4ccccc4)c(=O)c(Br)cn23)n(C)c1=O	> 100 µM (inactive)	> 100 µM (inactive)	> 100 µM (inactive)	> 100 µM (inactive)	> 100 µM (inactive)	> 100 µM (inactive)	> 100 µM (inactive)	> 100 µM (inactive)	> 100 µM (inactive)	> 100 µM (inactive)	> 100 µM (inactive)	> 100 µM (inactive)	> 100 µM	> 100 µM (inactive)	> 100 µM (inactive)	> 100 µM (inactive)	> 100 µM (inactive)	> 100 µM (inactive)	> 100 µM (inactive)	1.71 µM (inactive)
C=C1C(=O)C23CC1C[C@H](OC(C)=O)[C@H]2C1(C)C(OC(C)=O)C[C@H](O)C(C)(C)[C@H]1C(=O)[C@@H]3OC(C)=O (stereo not given in full)	1.71 µM (inactive)	3.09 µM (inactive)	16.7 µM (inactive)	2.28 µM (inactive)	3.28 µM (inactive)	6.84 µM (inactive)	3.09 µM (inactive)	12.4 µM (inactive)	2.43 µM (inactive)	3.4 µM (inactive)	9.08 µM (inactive)	23.2 µM (inactive)	4.37 µM	1.57 µM (inactive)	3.98 µM (inactive)	17.9 µM (inactive)	1.69 µM (inactive)	2.94 µM (inactive)	1.95 µM (inactive)	2.47 µM (inactive)
